The numbers were not newly measured in patent publication US11464768B2, “Pimavanserin alone or in combination for use in the treatment of Alzheimer's disease psychosis” (ACADIA Pharmaceuticals Inc., priority 2016, dated 2022), which cites them from elsewhere.

The conditions of this data set: tartrate salt; cited from earlier work.

As to “urea, N-[(4-fluorophenyl)methyl]-N-(1-methyl-4-piperidinyl)-N′-[[4-(2-methylpropoxy)phenyl]methyl]-,(2R,3R)-2,3-dihydroxybutanedioate (2:1) [Pimavanserin tartrate]”, the solubility in water result is “freely soluble in water”.
